Source: ChEMBL document CHEMBL5247655, “Simplified Derivatives of Tetrandrine as Potent and Specific P-gp Inhibitors to Reverse Multidrug Resistance in Cancer Chemotherapy” (J Med Chem, 2023)
≈ marks a conversion by molar mass, not a printed value. Calls of active or inactive are those of the source. No cut-off for these calls is given here.

Legend:
[1] = system: ECa-109 cell line; test: Induction of apoptosis in vincristine resistant human Eca-109 cells assessed as necrotic cells at 5 uM incubated for 24 hrs in presence of vincristine by AnnexinV-FITC/PI staining based flow cytometric analysis (reference value: 0.35%); format: functional
[2] = AUC (0 to infinity) in Sprague-Dawley rat at 3 mg/kg, iv measured upto 24 hrs by UPLC/MS/MS analysis; format: ADME, organism-based; parameters: time < 24 hrs, dose 3 mg/kg, route iv; conditions: in vivo
[3] = Tmax in Sprague-Dawley rat at 3 mg/kg, iv measured upto 24 hrs by UPLC/MS/MS analysis; format: ADME, organism-based; conditions: in vivo
[4] = system: ECa-109 cell line; test: Induction of apoptosis in vincristine resistant human Eca-109 cells assessed as late apoptotic cells at 1 uM incubated for 24 hrs in presence of vincristine by AnnexinV-FITC/PI staining based flow cytometric analysis (reference value: 6.01%); format: functional
[5] = Apparent volume of distribution during terminal phase in Sprague-Dawley rat at 3 mg/kg, iv measured upto 24 hrs by UPLC/MS/MS analysis; format: ADME, organism-based; conditions: in vivo
[6] = AUC (0 to t) in Sprague-Dawley rat at 30 mg/kg, po measured upto 24 hrs by UPLC/MS/MS analysis; format: ADME, organism-based; parameters: time < 24 hrs, dose 30 mg/kg, route po; conditions: in vivo
[7] = system: ECa-109 cell line; test: Induction of apoptosis in vincristine resistant human Eca-109 cells assessed as late apoptotic cells at 5 uM incubated for 24 hrs by AnnexinV-FITC/PI staining based flow cytometric analysis (reference value: 7.19%); format: functional
[8] = system: ECa-109 cell line; test: Induction of apoptosis in vincristine resistant human Eca-109 cells assessed as late apoptotic cells at 2.5 uM incubated for 24 hrs in presence of vincristine by AnnexinV-FITC/PI staining based flow cytometric analysis (reference value: 6.01%); format: functional
[9] = Toxicity in nude mouse assessed as change in body weight at 30 mg/kg administered every 2 days for 21 days; format: organism-based; conditions: in vivo, 48 h, time 2 day
[10] = Apparent oral clearance in Sprague-Dawley rat at 30 mg/kg, po measured upto 24 hrs by UPLC/MS/MS analysis; format: ADME, organism-based; conditions: in vivo
[11] = system: ECa-109 cell line; test: Induction of apoptosis in vincristine resistant human Eca-109 cells assessed as viable cells at 2.5 uM incubated for 24 hrs in presence of vincristine by AnnexinV-FITC/PI staining based flow cytometric analysis (reference value: 89.2%); format: functional; conditions: read-out: Activity
[12] = system: ECa-109 cell line; test: Induction of apoptosis in vincristine resistant human Eca-109 cells assessed as early apoptotic cells at 1 uM incubated for 24 hrs by AnnexinV-FITC/PI staining based flow cytometric analysis (reference value: 2.30%); format: functional
[13] = system: ECa-109 cell line; test: Induction of apoptosis in vincristine resistant human Eca-109 cells assessed as early apoptotic cells at 1 uM incubated for 24 hrs in presence of vincristine by AnnexinV-FITC/PI staining based flow cytometric analysis (reference value: 4.43%); format: functional
[14] = Solubility of the compound in water at 25 degree C by shake flask method based UV-spectrophotometric method; format: physicochemical
[15] = system: ECa-109 cell line; test: Synergistic antitumor activity against in vincristine resistant p-gp overexpressing human Eca-109 cells xenografted in nude mouse assessed as increase in vacuoles at 30 mg/kg, IG administered every two days for 21 days in presence of vincristine by TUNEL analysis; format: functional, organism-based; conditions: time 21.0 day
[16] = system: ECa-109 cell line; test: Induction of apoptosis in vincristine resistant human Eca-109 cells assessed as early apoptotic cells at 5 uM incubated for 24 hrs in presence of vincristine by AnnexinV-FITC/PI staining based flow cytometric analysis (reference value: 4.43%); format: functional
[17] = Cmax in Sprague-Dawley rat at 3 mg/kg, iv measured upto 24 hrs by UPLC/MS/MS analysis; format: ADME, organism-based; parameters: time < 24 hrs, dose 3 mg/kg, route iv; conditions: in vivo
[18] = system: ECa-109 cell line; test: Synergistic antitumor activity against in vincristine resistant p-gp overexpressing human Eca-109 cells xenografted in nude mouse assessed as reduction in tumor weight at 30 mg/kg, IG administered every two days for 21 days in presence of vincristine by caliper method; format: functional, organism-based; conditions: time 21.0 day
[19] = AUC (0 to t) in Sprague-Dawley rat at 3 mg/kg, iv measured upto 24 hrs by UPLC/MS/MS analysis; format: ADME, organism-based; parameters: time < 24 hrs, dose 3 mg/kg, route iv; conditions: in vivo
[20] = system: ECa-109 cell line; test: Induction of apoptosis in vincristine resistant human Eca-109 cells assessed as viable cells at 1 uM incubated for 24 hrs by AnnexinV-FITC/PI staining based flow cytometric analysis (reference value: 90.3%); format: functional; conditions: read-out: Activity
[21] = system: ECa-109 cell line; test: Induction of apoptosis in vincristine resistant human Eca-109 cells assessed as necrotic cells at 5 uM incubated for 24 hrs by AnnexinV-FITC/PI staining based flow cytometric analysis (reference value: 0.25%); format: functional
[22] = system: ECa-109 cell line; test: Induction of apoptosis in vincristine resistant human Eca-109 cells assessed as necrotic cells at 2.5 uM incubated for 24 hrs by AnnexinV-FITC/PI staining based flow cytometric analysis (reference value: 0.25%); format: functional
[23] = system: ECa-109 cell line; test: Synergistic antitumor activity against in vincristine resistant p-gp overexpressing human Eca-109 cells xenografted in nude mouse assessed as inhibition of tumor growth rate at 30 mg/kg, IG administered every two days for 21 days in presence of vincristine relative to control; format: functional; parameters: scale not given: the % may be the effect or the level left; conditions: time 21 day
[24] = AUMC (0 to infinity) in Sprague-Dawley rat at 3 mg/kg, iv measured upto 24 hrs by UPLC/MS/MS analysis; format: ADME, organism-based; conditions: in vivo
[25] = target: T1, ATP-dependent translocase ABCB1 (Homo sapiens, UniProt P08183); test: Inhibition of P-gp efflux in vincristine resistant human Eca-109 cells assessed as effect on accumulation of H33342; format: cell-based
T1 sequence (P08183 whole entry): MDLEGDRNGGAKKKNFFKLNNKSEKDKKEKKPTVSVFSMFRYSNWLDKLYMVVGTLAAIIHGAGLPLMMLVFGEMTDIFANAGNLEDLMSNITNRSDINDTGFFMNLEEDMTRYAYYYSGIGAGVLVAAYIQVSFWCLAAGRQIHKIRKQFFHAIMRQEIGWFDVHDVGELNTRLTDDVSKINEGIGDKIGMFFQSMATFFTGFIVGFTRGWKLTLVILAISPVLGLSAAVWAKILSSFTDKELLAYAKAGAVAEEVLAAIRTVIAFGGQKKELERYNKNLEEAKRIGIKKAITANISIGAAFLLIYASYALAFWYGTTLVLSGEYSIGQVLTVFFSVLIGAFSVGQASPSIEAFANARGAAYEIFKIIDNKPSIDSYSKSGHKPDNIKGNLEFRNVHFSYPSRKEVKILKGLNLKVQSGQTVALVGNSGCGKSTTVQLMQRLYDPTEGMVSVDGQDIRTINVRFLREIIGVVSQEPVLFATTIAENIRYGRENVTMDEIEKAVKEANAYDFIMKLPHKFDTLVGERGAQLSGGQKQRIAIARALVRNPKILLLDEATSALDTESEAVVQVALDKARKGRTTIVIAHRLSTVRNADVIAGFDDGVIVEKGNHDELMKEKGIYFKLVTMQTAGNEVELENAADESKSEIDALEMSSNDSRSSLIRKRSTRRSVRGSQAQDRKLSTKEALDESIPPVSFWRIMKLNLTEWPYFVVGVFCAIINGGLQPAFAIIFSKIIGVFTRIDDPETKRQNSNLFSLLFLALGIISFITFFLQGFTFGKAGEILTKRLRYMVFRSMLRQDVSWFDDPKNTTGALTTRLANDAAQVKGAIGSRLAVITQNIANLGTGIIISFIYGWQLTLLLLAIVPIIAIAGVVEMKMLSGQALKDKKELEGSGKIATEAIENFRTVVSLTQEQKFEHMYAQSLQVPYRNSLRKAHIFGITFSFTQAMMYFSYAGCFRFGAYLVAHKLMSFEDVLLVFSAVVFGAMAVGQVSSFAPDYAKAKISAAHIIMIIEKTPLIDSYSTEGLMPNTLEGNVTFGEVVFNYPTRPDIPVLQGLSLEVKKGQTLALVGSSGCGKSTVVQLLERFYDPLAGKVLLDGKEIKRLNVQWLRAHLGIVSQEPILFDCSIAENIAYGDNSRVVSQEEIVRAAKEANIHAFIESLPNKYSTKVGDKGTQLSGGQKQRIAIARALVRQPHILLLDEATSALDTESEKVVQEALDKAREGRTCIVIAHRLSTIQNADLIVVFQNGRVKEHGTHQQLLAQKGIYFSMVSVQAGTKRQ

[26] = system: ECa-109 cell line; test: Induction of apoptosis in vincristine resistant human Eca-109 cells assessed as late apoptotic cells at 5 uM incubated for 24 hrs in presence of vincristine by AnnexinV-FITC/PI staining based flow cytometric analysis (reference value: 6.01%); format: functional
[27] = system: ECa-109 cell line; test: Induction of apoptosis in vincristine resistant human Eca-109 cells assessed as necrotic cells at 1 uM incubated for 24 hrs by AnnexinV-FITC/PI staining based flow cytometric analysis (reference value: 0.25%); format: functional
[28] = target: T1, ATP-dependent translocase ABCB1; test: Inhibition of P-gp efflux in vincristine resistant human Eca-109 cells assessed as increase in rhodamine 123 fluorescence intensity at 30 uM; format: cell-based; conditions: eca-109, 30 µM, TDE = time-dependent effect, time 0-5 hrs

AUC(0-inf) [2]: 2740 ng·h/mL
Tmax [3]: 10.2 min
Vz/F [5]: 12.84 L/kg
AUC(0-t) at 24 h [6]: 2670 ng·h/mL
CL/F [10]: 186 mL/min/kg
solubility thermodynamic [14]: 68 µg/mL (≈ 157 µM)
Cmax [17]: 1570 ng/mL
AUC(0-t) at 24 h [19]: 2690 ng·h/mL
AUMC [24]: 7391.35 ng/mL.hr^2
inhibition (INH) [25]: Active
inhibition (INH) [28]: Tde
Structure (SMILES): COc1cc2c(cc1OC)C(Cc1ccc(OC)c(OCc3ccccc3)c1)N(C)CC2 (stereo not drawn)
Activity [1]: 0.62%
Activity [4]: 8.64%
Activity [7]: 6.58%
Activity [8]: 11.3%
Activity [9]: Non-Toxic
viability at 2.5 µM [11]: 70.5%
Activity [12]: 2.07%
Activity [13]: 14.9%
Activity [15]: Active
Activity [16]: 24.9%
Activity [18]: Active
viability at 1 µM [20]: 91.6%
Activity [21]: 0.14%
Activity [22]: 0.11%
Activity [23]: 79.13%
Activity [26]: 9.81%
Activity [27]: 0.15%
